Patent US20210355065A1, “CB-0406 tromethamine salt” (CymaBay Therapeutics, Inc., priority 2020, published 2021)

Experiments:
[1] = 75% RH and 41° C.
Experimental: Relative humidity (RH) stressing of CB-0406 tromethamine salt was performed by placing solid CB-0406 tromethamine salt in an RH chamber containing a saturated aqueous solution of sodium chloride (˜75% RH), potassium chloride (˜84% RH, RT/-82% RH, 40° C.), sodium bromide (˜58% RH, RT), or potassium sulfate (˜97% RH, RT/-96% RH, 40° C.), with excess salt present. The chamber was sealed and left at ambient temperature or placed in an oven at elevated temperature.

[2] = at 95% relative humidity relative to weight at 5% relative humidity; approx. 0.2 equivalents of water; essentially completely reversible
Experimental: A DVS analysis of CB-0406 tromethamine salt was performed using a VTI SGA-100 Vapor Sorption Analyzer. The sample was not dried prior to analysis, and data were not corrected for the initial moisture content of the sample. Equilibrium criteria used for analysis were less than 0.010% weight change in 5 minutes, with a maximum equilibration time of 3 hours if the weight criterion was not met. […] Sodium chloride and polyvinylpyrrolidone were used as calibration standards.

[3] = Source text: CB-0406 tromethamine salt has been characterized using DSC, TGA, XRPD, hot stage microscopy, and solution ^1H NMR. CB-0406 tromethamine salt has also been tested by relative humidity stressing, and its solubility measured in simulated intestinal fluid without pancreatin.
[4] = biological target: CYP 2C9 (Homo sapiens, UniProt P11712); conditions: tolbutamide hydroxylation assay; relative to (S)-enantiomer; cited from earlier work
Sequence of CYP 2C9 (P11712 whole entry, species assumed): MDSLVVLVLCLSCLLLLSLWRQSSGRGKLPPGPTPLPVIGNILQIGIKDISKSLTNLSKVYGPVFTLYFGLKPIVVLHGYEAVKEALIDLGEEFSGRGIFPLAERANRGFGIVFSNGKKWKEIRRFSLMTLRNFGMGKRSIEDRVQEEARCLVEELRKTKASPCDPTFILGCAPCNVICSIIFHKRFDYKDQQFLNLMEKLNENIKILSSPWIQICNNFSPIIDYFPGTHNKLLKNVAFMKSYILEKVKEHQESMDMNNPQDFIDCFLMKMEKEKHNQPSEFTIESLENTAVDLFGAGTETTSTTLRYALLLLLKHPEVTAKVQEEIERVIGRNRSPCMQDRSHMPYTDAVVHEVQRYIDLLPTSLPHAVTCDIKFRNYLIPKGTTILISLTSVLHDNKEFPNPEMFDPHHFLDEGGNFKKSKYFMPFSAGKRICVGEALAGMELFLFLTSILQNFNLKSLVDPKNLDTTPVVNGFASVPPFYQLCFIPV

| Compound | appearance after RH stressing ([1]; at 7 and 9 days) | XRPD analysis after RH stressing ([1]; at 18 and 46 days, some increase in low angle scattering background) | net weight gain (DVS) [2] | solubility ([3]; simulated intestinal fluid without pancreatin) [mg/mL] | solubility in simulated intestinal fluid, fold greater than that of CB-0406 ([3]; simulated intestinal fluid, relative to CB-0406) [fold] | fold less active as an inhibitor of CYP 2C9 than its (S)-enantiomer [4] |
| --- | --- | --- | --- | --- | --- | --- |
| 1,3-dihydroxy-2-(hydroxymethyl)propan-2-aminium (2R)-2-(4-chlorophenyl)-2-[3-(trifluoromethyl)phenoxy]acetate [CB-0406 tromethamine salt] | free-flowing solid | consistent with CB-0406 tromethamine salt | less than 0.8% | > 200 | ≥ 60 |  |
| O=C(O)[C@H](Oc1cccc(C(F)(F)F)c1)c1ccc(Cl)cc1 [CB-0406, (2R)-2-(4-chlorophenyl)-2-[3-(trifluoromethyl)phenoxy]acetic acid] |  |  |  |  |  | approximately 20 fold |
